Here are results for 3 compounds from patent publication US5236899A (Merck & Co., Inc., priority 1991, dated 1993).

Series [1] in a line: Nephrotoxicity in an in vivo mouse model. To be noted: result in words.
Series [2] relates to Parental CHO cells (Drug Sensitive). Briefly: Doxorubicin growth inhibition, methylene blue staining method, parental drug-sensitive cells. As to conditions: Cricetulus griseus, doxorubicin only, about 72 hours continuous exposure. It is filed as cell-based, Chinese hamster. As to the method:
Equal numbers of cells of an anchorage dependent mammalian cell line are seeded in growth medium (e.g. alpha MEM plus 10% FBS) into a suitable culture vessel, e.g. plastic 96 well tissue culture plates. A cytotoxic drug (e.g. doxorubicin) is added to the cells in the dishes at various concentrations ranging between 0 and 100 uM. Following about 72 hours of continuous exposure to the cytotoxic agent, the growth medium is decanted and the cells are washed with a suitable buffer, e.g. phosphate buffered saline (PBS). About 2 ml of a solution of 2% methylene blue (dissolve methylene blue in a solution of about 50% ethanol in water) is added to the cells on the dishes. The dye is allowed to contact the cells for about 2 minutes. Excess dye is washed away with cold water and the plates are air dried. The dye stained cells are then solubilized by adding an equal volume to all wells of a solution of a detergent, e.g. 1% N-lauroyl-sarcosine. The amount of dye remaining in the wells directly correlates witht he number of cells in the well. The amount of methylene blue dye in the wells can be measured spectrophotometrically by measuring absorbance at 600 nm using an electronic ELISA plate spectrophotmeter (Minireader II, Dynatech Laboratories, Alexandria, VA). […]

For series [3], the system named is MDR CHO cells (multidrug-resistant). Nature of the series: Doxorubicin growth inhibition, methylene blue staining method, multidrug-resistant cells. It counts as cell-based, Chinese hamster. As to conditions: Cricetulus griseus, doxorubicin only, about 72 hours continuous exposure. An excerpt: Multidrug-resistant cells lines are easily obtainable for in vitro determination of drug sensitization by compounds of the present invention, as well as other compounds with similar activity. These cell lines include NIH-OVCAR-3 (ATCC HTB161)., which is commercially available. Other cell lines can be readily developed in accordance with the methods described by Twentyman et al., Br. J. Cancer, 54, 253 (1986). This procedure selects for multidrug-resistant cells by culturing the parental drug sensitive cell line in the continued presence of a cytotoxic drug, for example, doxorubicin.
Drug sensitive cells will perish while multidrug-resistant cells will survive and grow despite the presence of the drug. Eventually, a multidrug-resistant cell population emerges and can be used in an assay system for the detection of agents which can modify the multidrug-resistance. Many cell lines are suitable as parental cell lines from which multidrug-resistant cells can be selected. […]
Equal numbers of cells of an anchorage dependent mammalian cell line are seeded in growth medium (e.g. alpha MEM plus 10% FBS) into a suitable culture vessel, e.g. plastic 96 well tissue culture plates. […] The amount of methylene blue dye in the wells can be measured spectrophotometrically by measuring absorbance at 600 nm using an electronic ELISA plate spectrophotmeter (Minireader II, Dynatech Laboratories, Alexandria, VA). […]

In general, IC50 refers to the concentration at which inhibition is half-maximal.

In the case of `C/C=C/C[C@@H](C)[C@@H](O)[C@H]1C(=O)N[C@@H](CC)C(=O)N(C)CC(=O)N(C)[C@@H](CC(C)C)C(=O)N[C@@H](C(C)C)C(=O)N(C)[C@@H](C)C(=O)N[C@@H](C)C(=O)N[C@H](C)C(=O)N(C)[C@@H](CC(C)C)C(=O)N(C)[C@@H](CC(C)C)C(=O)N(C)[C@@H](C(C)C)C(=O)N1C` [6-MeAla, Cyclo[-((2S,3R,4R,6E)-3-Hydroxy-4-methyl-2-methylamino-6-octenoyl)-L-2-aminobutyryl-sarcosyl-N-methyl-L-leucyl-Valyl-N-methyl-L-alanyl-L-alanyl-D-alanyl-N-methyl-L-leucyl-N-methyl-L-leucyl-N-methyl-L-valyl]], the Nephrotoxicity result in series [1] was “lack the nephrotoxic side effects”.

`C/C=C/C[C@@H](C)[C@@H](O)[C@H]1C(=O)N[C@@H](CC)C(=O)N(C)CC(=O)N(C)[C@@H](CC(C)C)C(=O)N[C@@H](C(C)C)C(=O)N(C)[C@@H](CC)C(=O)N[C@@H](C)C(=O)N[C@H](C)C(=O)N(C)[C@@H](CC(C)C)C(=O)N(C)[C@@H](CC(C)C)C(=O)N(C)[C@@H](C(C)C)C(=O)N1C` [6-MeAbu]: in series [1], the Nephrotoxicity entry is recorded as “lack the nephrotoxic side effects”.

Regarding `COc1cccc2c1C(=O)c1c(O)c3c(c(O)c1C2=O)C[C@@](O)(C(=O)CO)C[C@@H]3O[C@H]1C[C@H](N)[C@H](O)[C@H](C)O1` [Doxorubicin, doxorubicin], the IC50 in series [2] was determined as 0.17 ± 0.01 µM; in series [3], 11.3 ± 0.51 µM.
